Test results as given in ChEMBL document CHEMBL1153552, “Comparative in vitro pharmacodynamics of caspofungin, micafungin, and anidulafungin against germinated and nongerminated Aspergillus conidia” (2008).
Activity calls are given as the source filed them. No cut-off for these calls is given here. Numbered stars: 1 amine (or outer) side, 2 acyl side, 3 side chain; on linkers, the order of the positions; unused ones are H or OH. Bridge positions count the residues as written; N and C are the ends. Square brackets hold non-standard residues; d marks the D form. Peptide text beside a SMILES is read from it. * marks the point of attachment. hTyr(3S-OH,4S-OH,3'-OSO3H) = N[C@H](C(=O)O)[C@H](O)[C@@H](O)c1ccc(O)c(OS(=O)(=O)O)c1; Orn(4R-OH,5R-OH) = O=C([C@H](C[C@@H](O)[C@@H](O)N[*:3])N[*:1])[*:2]; Pro(3S-OH,4S-Me) = C[C@H]1CN[C@H](C(=O)O)[C@H]1O; X1 = CCCCCOc1ccc(-c2cc(-c3ccc(C(=O)*)cc3)no2)cc1; Gln(3R-OH) = NC(=O)C[C@@H](O)[C@H](N)C(=O)O; Hyp = O=C(O)[C@@H]1C[C@@H](O)CN1

Columns and labels:
Aspergillus fumigatus [1] = assay: Antifungal activity against nongerminated Aspergillus fumigatus assessed as lowest drug concentration that produced short, stubby and highly branched hyphae after 48 hrs by microscopic analysis; format: functional; details: read-out: MEC
Aspergillus fumigatus [2] = assay: Antifungal activity against germinated Aspergillus fumigatus assessed as lowest drug concentration that produced short, stubby and highly branched hyphae after 48 hrs by microscopic analysis; format: functional; details: read-out: MEC
Aspergillus fumigatus [3] = assay: Ratio of log2 of MEC for germinated Aspergillus fumigatus to log2 of MEC for nongerminated Aspergillus fumigatus; format: functional
Aspergillus terreus [4] = assay: Antifungal activity against nongerminated Aspergillus terreus assessed as lowest drug concentration that produced short, stubby and highly branched hyphae after 48 hrs by microscopic analysis; format: functional; details: read-out: MEC
Aspergillus terreus [5] = assay: Antifungal activity against germinated Aspergillus terreus assessed as lowest drug concentration that produced short, stubby and highly branched hyphae after 48 hrs by microscopic analysis; format: functional; details: read-out: MEC
Aspergillus terreus [6] = assay: Ratio of log2 of MEC for germinated Aspergillus terreus to log2 of MEC for nongerminated Aspergillus terreus; format: functional
Aspergillus flavus [7] = assay: Antifungal activity against nongerminated Aspergillus flavus assessed as lowest drug concentration that produced short, stubby and highly branched hyphae after 48 hrs by microscopic analysis; format: functional; details: read-out: MEC
Aspergillus flavus [8] = assay: Antifungal activity against germinated Aspergillus flavus assessed as lowest drug concentration that produced short, stubby and highly branched hyphae after 48 hrs by microscopic analysis; format: functional; details: read-out: MEC
Aspergillus flavus [9] = assay: Ratio of log2 of MEC for germinated Aspergillus flavus to log2 of MEC for nongerminated Aspergillus flavus; format: functional
Aspergillus fumigatus [10] = assay: Antifungal activity against nongerminated Aspergillus fumigatus assessed as short, stubby and highly branched hyphae after 48 hrs by microscopy analysis; format: functional, organism-based
Aspergillus fumigatus [11] = assay: Effect on nongerminated Aspergillus fumigatus metabolic activity assessed as drug concentration at which fungal metabolic activity occurs after 2 hrs by XTT assay; format: functional
Aspergillus fumigatus [12] = assay: Effect on germinated Aspergillus fumigatus metabolic activity assessed as drug concentration at which fungal metabolic activity occurs after 2 hrs by XTT assay; format: functional
Aspergillus fumigatus [13] = assay: Effect on Aspergillus fumigatus metabolic activity assessed number of twofold drug dilutions required for germinated fungal metabolic activity to nongerminated fungal metabolic activity; format: functional
Aspergillus terreus [14] = assay: Effect on nongerminated Aspergillus terreus metabolic activity assessed as drug concentration at which fungal metabolic activity occurs after 2 hrs by XTT assay; format: functional
Aspergillus terreus [15] = assay: Effect on germinated Aspergillus terreus metabolic activity assessed as drug concentration at which fungal metabolic activity occurs after 2 hrs by XTT assay; format: functional
Aspergillus terreus [16] = assay: Effect on Aspergillus terreus metabolic activity assessed number of twofold drug dilutions required for germinated fungal metabolic activity to nongerminated fungal metabolic activity; format: functional
Aspergillus flavus [17] = assay: Effect on nongerminated Aspergillus flavus metabolic activity assessed as drug concentration at which fungal metabolic activity occurs after 2 hrs by XTT assay; format: functional
Aspergillus flavus [18] = assay: Effect on germinated Aspergillus flavus metabolic activity assessed as drug concentration at which fungal metabolic activity occurs after 2 hrs by XTT assay; format: functional
Aspergillus flavus [19] = assay: Effect on Aspergillus flavus metabolic activity assessed number of twofold drug dilutions required for germinated fungal metabolic activity to nongerminated fungal metabolic activity; format: functional
Aspergillus fumigatus [20] = assay: Induction of maximal metabolic inhibition in nongerminated Aspergillus fumigatus assessed as minimal metabolic activity Ymin after 2 hrs by XTT assay; format: functional; design: scale not given: the % may be the effect or the level left
Aspergillus fumigatus [21] = assay: Induction of maximal metabolic inhibition in germinated Aspergillus fumigatus assessed as minimal metabolic activity Ymin after 2 hrs by XTT assay; format: functional; design: scale not given: the % may be the effect or the level left
Aspergillus terreus [22] = assay: Induction of maximal metabolic inhibition in nongerminated Aspergillus terreus assessed as minimal metabolic activity Ymin after 2 hrs by XTT assay; format: functional; design: scale not given: the % may be the effect or the level left
Aspergillus terreus [23] = assay: Induction of maximal metabolic inhibition in germinated Aspergillus terreus assessed as minimal metabolic activity Ymin after 2 hrs by XTT assay; format: functional; design: scale not given: the % may be the effect or the level left
Aspergillus flavus [24] = assay: Induction of maximal metabolic inhibition in nongerminated Aspergillus flavus assessed as minimal metabolic activity Ymin after 2 hrs by XTT assay; format: functional; design: scale not given: the % may be the effect or the level left
Aspergillus flavus [25] = assay: Induction of maximal metabolic inhibition in germinated Aspergillus flavus assessed as minimal metabolic activity Ymin after 2 hrs by XTT assay; format: functional; design: scale not given: the % may be the effect or the level left
Aspergillus fumigatus [26] = assay: Antifungal activity against nongerminated Aspergillus fumigatus assessed as absence of visual fungal growth at 128 ug/mL; format: functional, organism-based
Aspergillus fumigatus [27] = assay: Antifungal activity against germinated Aspergillus fumigatus assessed as absence of visual fungal growth at 128 ug/mL; format: functional, organism-based
Aspergillus terreus [28] = assay: Antifungal activity against nongerminated Aspergillus terreus assessed as absence of visual fungal growth at 128 ug/mL; format: functional, organism-based
Aspergillus terreus [29] = assay: Antifungal activity against germinated Aspergillus terreus assessed as absence of visual fungal growth at 128 ug/mL; format: functional, organism-based
Aspergillus flavus [30] = assay: Antifungal activity against nongerminated Aspergillus flavus assessed as absence of visual fungal growth at 128 ug/mL; format: functional, organism-based
Aspergillus flavus [31] = assay: Antifungal activity against germinated Aspergillus flavus assessed as absence of visual fungal growth at 128 ug/mL; format: functional, organism-based
Aspergillus fumigatus [32] = assay: Antifungal activity against nongerminated Aspergillus fumigatus assessed as absence of visual fungal growth at 64 ug/mL; format: functional, organism-based
Aspergillus fumigatus [33] = assay: Antifungal activity against germinated Aspergillus fumigatus assessed as absence of visual fungal growth at 64 ug/mL; format: functional, organism-based
Aspergillus terreus [34] = assay: Antifungal activity against nongerminated Aspergillus terreus assessed as absence of visual fungal growth at 64 ug/mL; format: functional, organism-based
Aspergillus terreus [35] = assay: Antifungal activity against germinated Aspergillus terreus assessed as absence of visual fungal growth at 64 ug/mL; format: functional, organism-based
Aspergillus flavus [36] = assay: Antifungal activity against nongerminated Aspergillus flavus assessed as absence of visual fungal growth at 64 ug/mL; format: functional, organism-based
Aspergillus flavus [37] = assay: Antifungal activity against germinated Aspergillus flavus assessed as absence of visual fungal growth at 64 ug/mL; format: functional, organism-based

Work on `CCCCCOc1ccc(-c2cc(-c3ccc(C(=O)N[C@H]4C[C@@H](O)[C@@H](O)NC(=O)[C@@H]5[C@@H](O)[C@@H](C)CN5C(=O)[C@H]([C@H](O)CC(N)=O)NC(=O)[C@H]([C@H](O)[C@@H](O)c5ccc(O)c(OS(=O)(=O)O)c5)NC(=O)[C@@H]5C[C@@H](O)CN5C(=O)[C@H]([C@@H](C)O)NC4=O)cc3)no2)cc1` [MICAFUNGIN] (X1-[Orn(4R-OH,5R-OH)]T[Hyp][hTyr(3S-OH,4S-OH,3'-OSO3H)][Gln(3R-OH)][Pro(3S-OH,4S-Me)]; lactam 1-C) yielded a minimal effective concentration (Aspergillus fumigatus [1]) of 0.06 µg/mL, a minimal effective concentration (Aspergillus fumigatus [2]) of 0.25 µg/mL and a Ratio (Aspergillus fumigatus [3]) of 1. For the same compound, the minimal effective concentration (Aspergillus terreus [4]) was 0.12 µg/mL, the minimal effective concentration (Aspergillus terreus [5]) was 0.25 µg/mL and the Ratio (Aspergillus terreus [6]) was 1. For the same compound, the minimal effective concentration (Aspergillus flavus [7]) was 0.12 µg/mL, the minimal effective concentration (Aspergillus flavus [8]) was 0.5 µg/mL and the Ratio (Aspergillus flavus [9]) was 2. The Activity (Aspergillus fumigatus [10]) was “Active”, the EC5 (Aspergillus fumigatus [11]) was 0.04 µg/mL and the EC5 (Aspergillus fumigatus [12]) was 0.05 µg/mL. It also gave a Ratio (Aspergillus fumigatus [13]) of 0.67, an EC5 (Aspergillus terreus [14]) of 0.07 µg/mL and an EC5 (Aspergillus terreus [15]) of 0.14 µg/mL. The Ratio (Aspergillus terreus [16]) was 2.04, the EC5 (Aspergillus flavus [17]) was 0.05 µg/mL and the EC5 (Aspergillus flavus [18]) was 0.14 µg/mL. It also gave a Ratio (Aspergillus flavus [19]) of 1.57, an Activity (Aspergillus fumigatus [20]) of 25% and an Activity (Aspergillus fumigatus [21]) of 29%. For the same compound, the Activity (Aspergillus terreus [22]) was 29%, the Activity (Aspergillus terreus [23]) was 37% and the Activity (Aspergillus flavus [24]) was 17%. For the same compound, the Activity (Aspergillus flavus [25]) was 20%, the Activity (Aspergillus fumigatus [26]) was “inactive” and the Activity (Aspergillus fumigatus [27]) was “inactive”. For the same compound, the Activity (Aspergillus terreus [28]) was “inactive”, the Activity (Aspergillus terreus [29]) was “inactive” and the Activity (Aspergillus flavus [30]) was “inactive”. The Activity (Aspergillus flavus [31]) was “inactive”, the Activity (Aspergillus fumigatus [32]) was “inactive” and the Activity (Aspergillus fumigatus [33]) was “inactive”. The Activity (Aspergillus terreus [34]) was “inactive”, the Activity (Aspergillus terreus [35]) was “inactive” and the Activity (Aspergillus flavus [36]) was “inactive”. The Activity (Aspergillus flavus [37]) was “inactive”.
